Results on 58 compounds are retold here after the METLIN SMRT retention time set (Domingo-Almenara et al. 2019).

A short description of this series: gradient 5% acetonitrile 3 min, to 50% in 2 min, to 85% in 15 min, held 3 min, 100 µL/min. The note with it: column: Zorbax Extend-C18 2.1 x 50 mm; eluents: water / acetonitrile, 0.1% formic acid. In outline:
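Retention times of pure standards were taken from adduct peaks that were selected by computer and manually inspected. Over 3 months, mixtures of ~100 molecules were run by HPLC–quadrupole time-of-flight mass spectrometry in positive and negative ionization mode. The Zorbax Extend-C18 column (2.1 × 50 mm, 1.8 μm) ran at 100 μL/min in water and acetonitrile, each containing 0.1% formic acid, with 40 μL dead volume and 900 μL dwell volume.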
In turn, `CCN(CC)C(=O)c1ccc2c(c1)N(CC(=O)NCCOC)C(=O)C1CCCCN21` (stereo not drawn) gave an RP-LC retention time of 688 s.

On to `O=C(NCc1ccccc1C(F)(F)F)c1cnc(-c2ccccc2)nc1-c1ccncc1`, for which the RP-LC retention time was found to be 924 s.

With `CCN(CC)c1ccc(NS(=O)(=O)c2cc(-c3nc(C)cs3)sc2C)c(C)c1`, the RP-LC retention time came to 750 s.

Turning to `CCc1ccc(-c2nc(C3CC(=O)N(c4ccc(F)c(Cl)c4)C3)no2)cc1` (stereo not drawn), the RP-LC retention time worked out at 1200 s.

Compound `CCc1nc2cc(N3CCCC(C(=O)NCC4CC4)C3)cnc2nc1CC` (stereo not drawn) returned an RP-LC retention time of 762 s.

In turn, `CCOc1ccc(S(=O)(=O)Nc2cccc(-c3cn4cccc(C)c4n3)c2)cc1` had an RP-LC retention time of 666 s.

`O=C(Cn1ccc2ccc(N3CCOCC3)nc21)NCc1ccccc1Cl`: the RP-LC retention time is 905 s.

Compound `COC(=O)c1nc(NC(=O)Cn2nc3c(cc2=O)CCCCC3)sc1CC(C)C` yielded an RP-LC retention time of 941 s.

Consider `COc1ccc(N2CCN(c3ccc4cc(S(=O)(=O)N5CCCC5)ccc4n3)CC2)cc1`, for which the RP-LC retention time worked out at 855 s.

The compound `NC(=O)c1cccc(-c2cc(Nc3ccc(OC(F)(F)F)cc3)ncn2)c1` came in with an RP-LC retention time of 765 s.

The compound `Cc1nnc(CNC(=O)c2cc(-c3ccccc3)nn2C)o1` showed an RP-LC retention time of 646 s.

The compound `COc1ccc(NC(=O)N2CCC3(C2)C(=O)N(C)c2ccccc23)c(OC)c1` (stereo not drawn) gave an RP-LC retention time of 776 s.

With `CCOc1ccc(N2CCn3c2nn(Cc2cccc(C(F)(F)F)c2)c(=O)c3=O)cc1`, the RP-LC retention time was found to be 915 s.

In turn, `O=C(NCCCN1CCCCC1)C1CCN(c2cnn(Cc3ccccc3)c(=O)c2)CC1` displayed an RP-LC retention time of 606 s.

In turn, `CC(C)OCCCNC(=O)c1ccc2nc(Cc3ccccc3)oc2c1` registered an RP-LC retention time of 884 s.

Regarding `COc1ccc2[nH]c(C(=O)N3CCN(C(=O)Cc4cccs4)CC3)cc2c1`, the RP-LC retention time came out at 758 s.

In the case of `O=C(NCC1CCCO1)C1CCN(c2ccc(=O)n(-c3cccc(Cl)c3)n2)CC1` (stereo not drawn), the RP-LC retention time was 721 s.

`Cc1ccc(C(C)NC(=O)C2CCN(c3ccc4nncn4n3)CC2)cc1` (stereo not drawn) displayed an RP-LC retention time of 736 s.

For the compound `CNC(=O)N1CCc2ccc(C(=O)NC(C)(C)C)cc21`, the RP-LC retention time amounted to 661 s.

Compound `Cc1ccc2oc(-c3noc(C(=O)NCc4cccs4)n3)c(C)c2c1` displayed an RP-LC retention time of 1150 s.

In the case of `CCCCn1cc(S(=O)(=O)Nc2cccc(F)c2)c2cccnc21`, the RP-LC retention time turned out to be 936 s.

For `Cc1ccc2[nH]cc(CCN3CC(C(=O)Nc4ccc5c(c4)OCO5)CC3=O)c2c1` (stereo not drawn), the RP-LC retention time was determined as 783 s.

The compound `CCc1noc([C@@H]2CC(F)(F)CN2C(=O)c2ccoc2)n1` gave an RP-LC retention time of 757 s.

In turn, `CCOC(=O)c1ccc(Nc2c(C(=O)N3CCCC(C)C3)cnc3nc(C)ccc23)cc1` (stereo not drawn) showed an RP-LC retention time of 669 s.

With `CN(C)C(CNC(=O)c1ccccc1C(F)(F)F)c1cn(C)c2ccccc12` (stereo not drawn), the RP-LC retention time came out at 602 s.

With `O=C(NCc1ccccc1)C1c2ccccc2CC(=O)N1Cc1ccccc1` (stereo not drawn), the RP-LC retention time worked out at 850 s.

In the case of `CCOc1ccccc1OCc1nn2c(-c3ccoc3C)nnc2s1`, the RP-LC retention time was determined as 970 s.

`COC(=O)c1cccc(N2C=C(C(=O)N3CCCC3)S(=O)(=O)c3ccc(Cl)cc32)c1` showed an RP-LC retention time of 831 s.

Compound `OC(COCCOc1c(F)cc(Br)cc1F)CSc1ccccn1` (stereo not drawn) registered an RP-LC retention time of 934 s.

`CCN1C(=O)c2cccnc2Sc2cc(NC(=O)c3cccc(C(F)(F)F)c3)ccc21` had an RP-LC retention time of 957 s.

On to `COC(=O)c1ccccc1NC(=O)c1cnc2c(c1)c(=O)n(C)c(=O)n2-c1ccccc1`, for which the RP-LC retention time came out at 1030 s.

`CCn1cc(C)c(C(=O)O)c1CC(=O)N1CCCCCC1` returned an RP-LC retention time of 720 s.

For the compound `COc1ccc(-c2cccc(NC(C)=O)c2)nn1`, the RP-LC retention time worked out at 645 s.

Compound `Cc1sc(NC(=O)CCCc2nc(-c3ccccc3)no2)nc1-c1ccc(Cl)cc1` gave an RP-LC retention time of 1190 s.

In the case of `O=C(Nc1ccc(F)cc1F)N1CCC(n2cnc3c(Cl)cccc3c2=O)CC1`, the RP-LC retention time amounted to 806 s.

As for `Cc1nn(CC(=O)N2CCCCC2)c(=O)c2c(-n3cccc3)n(-c3ccc(F)cc3)nc12`, the RP-LC retention time worked out at 923 s.

With `Cc1ccccc1-c1noc(-c2nn(-c3cccc(F)c3)ccc2=O)n1`, the RP-LC retention time worked out at 941 s.

The compound `CC(=O)N1C[C@@H]2CCCN3CCC[C@@H]([C@H]23)[C@H]1CCCC(=O)NCCCc1c(C)noc1C` yielded an RP-LC retention time of 575 s.

Consider `NC(=O)[C@@H](CCC(F)(F)F)N(Cc1ccc(-c2ncon2)cc1F)S(=O)(=O)c1ccc(Cl)cc1`, for which the RP-LC retention time was 1030 s.

As to `Cc1ccccc1-n1c(Cn2ncc3c(N)ncnc32)nc2cccc(C)c2c1=O`, the RP-LC retention time stood at 719 s.

`O=C(Nc1c(-c2ccc(F)cc2)nc2ccccn12)c1ccc(Cl)cc1Cl` yielded an RP-LC retention time of 739 s.

`CCNc1cc(N2CCC(CCC(=O)NC(C)C)CC2)ncn1` returned an RP-LC retention time of 598 s.

For the compound `O=C(Cn1c(=O)ccc2cc(S(=O)(=O)N3CCCC3)ccc21)N1CCN(c2ccccn2)CC1`, the RP-LC retention time was 596 s.

The compound `O=C(Nc1ccc(Br)cc1F)c1ccc(N2CCOCC2)nn1` displayed an RP-LC retention time of 899 s.

As to `COc1ccc(CNC(=O)C2CCN(c3nc(C4CCC4)nc4csc(C)c34)CC2)cc1OC`, the RP-LC retention time stood at 957 s.

`Cc1cccc(N2CCN(CCNC(=O)c3cc4sccc4n3C)CC2)c1C` showed an RP-LC retention time of 778 s.

As to `COc1ccc(NS(=O)(=O)c2cc3n(c2)CCN(CC(C)C)C3=O)cc1`, the RP-LC retention time was 745 s.

`O=C(CCn1nnc2cc(S(=O)(=O)N3CCCC3)ccc21)N1CCN(c2ccccn2)CC1` gave an RP-LC retention time of 602 s.

As for `CCc1ccc(NC(=O)Cn2c(C)nc3c(sc4nc(-c5ccccc5)ccc43)c2=O)cc1`, the RP-LC retention time turned out to be 1120 s.

As for `Cc1ccc(Nc2c(-c3ccc(N4CCOCC4)cc3)nc3cccc(C)n23)cc1`, the RP-LC retention time turned out to be 746 s.

As for `Cc1cc(-n2c(C)nc3ccccc3c2=O)ccc1NC(=O)Cc1ccccc1F`, the RP-LC retention time turned out to be 798 s.

Take `COc1ccc(-c2cn3c(CC(=O)Nc4nc5ccc(C)cc5s4)csc3n2)cc1OC`: the RP-LC retention time turned out to be 783 s.

Turning to `Cc1cc(C)c(NC(=O)Cn2c(=O)cc(-c3nc(C4CC4)no3)c3ccccc32)c(C)c1`, the RP-LC retention time was determined as 999 s.

For the compound `O=C(Cc1ccsc1)N1CCC(c2nc(-c3ccccc3)no2)C1` (stereo not drawn), the RP-LC retention time turned out to be 864 s.

`COCCN1C(=O)c2ccccc2C(C(=O)NCCN2CCOCC2)C1c1ccc(F)cc1` (stereo not drawn): the RP-LC retention time is 628 s.

As for `CCOC(=O)c1c(C)[nH]c(CCC(=O)NCCc2c(C)noc2C)c1C`, the RP-LC retention time came out at 729 s.

As for `CCCN1CCN(CCCNC(=O)CCCn2c(=O)c3cccn3c3ccc(F)cc32)CC1`, the RP-LC retention time stood at 584 s.

`CCN(CC)CCNC(=O)CN1C(=O)C2CCCCN2c2ccc(C(=O)N(C)C)cc21` (stereo not drawn): the RP-LC retention time was found to be 601 s.
